{
  "source": "patent US5710244A",
  "about": "“Derivatized calcitonins” (priority 1993, dated 1998)",
  "key": {"serum calcium in mice": {"test_system": "serum calcium in mice", "assay": "In vivo effect on serum calcium levels in mice", "conditions": "Swiss-Webster male mice, single subcutaneous injection, 100 ng/ml, 1 μg/ml, 10 μg/ml; 0, 1 and 4 hours; FIGS. 1 and 2", "experimental": "The biological activity of bipyridine-calcitonin in vivo was measured as the ability of BP4,4 -CT to lower serum calcium in mice as compared to the action of salmon calcitonin. Six-week old Swiss-Webster male mice (12 to 18 grams) were given single, subcutaneous injections of BP4,4 -CT, salmon calcitonin or vehicle. Blood samples for serum calcium measurements were collected from orbital sinus punctures at timed intervals of 0, 1 and 4 hours after injection. Serum calcium was analyzed using a Dacos Excel Analyzer (Coulter Electronics Company, Hialeah, Fla.). The compounds were given at the following doses with eight mice randomly assigned to each of the following groups: […]"}, "[1]": {"test_system": "endogenous hamster calcitonin receptor", "assay": "CRE-linked luciferase (cyclic AMP) induction in BHK cells expressing endogenous hamster calcitonin receptor", "format": "cell-based", "conditions": "EC50 as % of salmon calcitonin (SCT) EC50; CRE-luciferase, BHK cells, 4 h induction", "experimental": "A BHK cell line expressing the endogenous hamster calcitonin receptor was transfected with plasmid KZ10-20-48 to provide the CRE-inducible luciferase receptor described above. The transfected cells were cultured in selective growth medium containing both 500 μg/mL G418-neomycin and 250 nM methotrexate.\nCells expressing the calcitonin receptor were assayed in triplicate for the induction of the CRE-linked luciferase response to salmon calcitonin (SCT) and derivatized calcitonins at concentrations ranging from 10^-13 M to 10^-6 M. MICROLITE flat bottom tissue culture plates (Baxter Scientific Products, Chicago, Ill.) were set up such that each well contained 2×10^4 cells in 100 μl of selection media, and the cells were grown overnight. SCT and GF43 were prepared at 2X the final assay concentration to give 10^-13 to 10^-6 M in growth medium. Induction was initiated by removing old medium from the wells and adding 100 μl of fresh growth medium and 100 μl of either 2X solution in triplicate sample wells. Uninduced luciferase levels were determined in triplicate wells to which 100 μl of DMEM containing 10% fetal calf serum was added. The plates were incubated for four hours at 37° C., 5% CO2 to allow induction of luciferase. Following induction, the media were removed, and the wells were washed once with 200 μl/well PBS. After the wash, 20 μl of a 1:5 dilution (in sterile water) of the stock Cell Culture Lysis Reagent (Luciferase Assay System, Promega Corp., Madison, Wis.) was added to each well, and the plates were incubated for 15 minutes at room temperature. The plates were transferred to a Labsystems Luminoskan microtiter luminometer (Labsystems Inc., Morton Grove, Ill.) which added 40 μl of Luciferase Assay Substrate (Luciferase Assay System, Promega), mixed the reaction for three seconds and integrated the luciferase signal for two seconds per well. The fold induction of luciferase for each compound was calculated as follows:\nFold induction=Induced signal-Uninduced signal Uninduced signal"}, "[2]": {"biological_target": "T1, recombinant human calcitonin receptor (Homo sapiens, UniProt P30988)", "T1 construct": "expressed in transfected cells; host or cells: BHK/KZ10-20-48 (BHK cells carrying a CRE-luciferase reporter) transfected with pHOLLEX (ATCC 69067)", "T1 sequence (P30988 25-474)": "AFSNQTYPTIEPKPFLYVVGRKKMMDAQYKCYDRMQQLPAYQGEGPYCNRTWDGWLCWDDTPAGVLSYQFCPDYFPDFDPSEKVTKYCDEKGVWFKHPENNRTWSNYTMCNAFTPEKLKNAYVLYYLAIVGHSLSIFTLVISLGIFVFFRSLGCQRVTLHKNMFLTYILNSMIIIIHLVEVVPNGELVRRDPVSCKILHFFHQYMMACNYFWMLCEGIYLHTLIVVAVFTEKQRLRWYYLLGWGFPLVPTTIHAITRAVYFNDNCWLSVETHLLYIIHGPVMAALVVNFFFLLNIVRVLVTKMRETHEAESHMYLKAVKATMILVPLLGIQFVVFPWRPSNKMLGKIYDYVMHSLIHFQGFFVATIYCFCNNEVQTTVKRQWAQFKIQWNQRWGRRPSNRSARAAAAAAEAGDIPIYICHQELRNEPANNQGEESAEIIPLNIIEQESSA", "assay": "CRE-linked luciferase (cyclic AMP) induction in BHK/KZ10-20-48 cells expressing recombinant human calcitonin receptor", "format": "cell-based", "conditions": "for activity / potency compared with human calcitonin: text summary of the Table (hamster and human CT receptor); for % SCT EC50, Human CT receptor: EC50 as % of salmon calcitonin (SCT) EC50, CRE-luciferase, BHK/KZ10-20-48 cells, 4 h induction", "quoted_text": "BHK/KZ10-20-48 is a BHK cell line transfected with a plasmid containing a luciferase gene whose expression is dependent upon a cyclic AMP response element (CRE), which induces expression of downstream coding sequences in the presence of cyclic AMP. […] The vector without the calcitonin receptor was used to transfect the cell line BHK/KZ10-20-48 for a negative control. The transfectants were grown in a selective growth medium (Dulbecco's Modified Eagle Medium (DMEM) with 5% serum) containing both 500 μg/ml G418-neomycin and 250 nM methotrexate.\nCells expressing the calcitonin receptor were assayed in triplicate for the induction of the CRE-linked luciferase response to salmon calcitonin (SCT) and derivatized calcitonins at concentrations ranging from 10^-13 M to 10^-6 M. MICROLITE flat bottom tissue culture plates (Baxter Scientific Products, Chicago, Ill.) were set up such that each well contained 2×10^4 cells in 100 μl of selection media, and the cells were grown overnight. […] Induction was initiated by removing old medium from the wells and adding 100 μl of fresh growth medium and 100 μl of either 2X solution in triplicate sample wells. Uninduced luciferase levels were determined in triplicate wells to which 100 μl of DMEM containing 10% fetal calf serum was added. The plates were incubated for four hours at 37° C., 5% CO2 to allow induction of luciferase. Following induction, the media were removed, and the wells were washed once with 200 μl/well PBS. After the wash, 20 μl of a 1:5 dilution (in sterile water) of the stock Cell Culture Lysis Reagent (Luciferase Assay System, Promega Corp., Madison, Wis.) was added to each well, and the plates were incubated for 15 minutes at room temperature. The plates were transferred to a Labsystems Luminoskan microtiter luminometer (Labsystems Inc., Morton Grove, Ill.) which added 40 μl of Luciferase Assay Substrate (Luciferase Assay System, Promega), mixed the reaction for three seconds and integrated the luciferase signal for two seconds per well. The fold induction of luciferase for each compound was calculated as follows:"}},
  "data": [
    {"compound": "CC(C)C[C@H](NC(=O)[C@H](CCCCN)NC(=O)CNC(=O)[C@H](CC(C)C)NC(=O)[C@@H](NC(=O)[C@@H]1CSSC[C@H](N)C(=O)N[C@@H](CO)C(=O)N[C@@H](CC(N)=O)C(=O)N[C@@H](CC(C)C)C(=O)N[C@@H](CO)C(=O)N[C@@H]([C@@H](C)O)C(=O)N1)C(C)C)C(=O)N[C@@H](CO)C(=O)N[C@@H](CCC(N)=O)C(=O)N[C@@H](CCC(=O)O)C(=O)N[C@@H](CC(C)C)C(=O)N[C@@H](Cc1c[nH]cn1)C(=O)N[C@@H](CCCCN)C(=O)N[C@@H](CC(C)C)C(=O)N[C@@H](CCC(N)=O)C(=O)N[C@H](C(=O)N[C@@H](Cc1ccc(O)cc1)C(=O)N1CCC[C@H]1C(=O)N[C@@H](CCCNC(=N)N)C(=O)N[C@H](C(=O)N[C@@H](CC(N)=O)C(=O)N[C@H](C(=O)NCC(=O)N[C@@H](CO)C(=O)NCC(=O)N[C@H](C(=O)N1CCC[C@H]1C(N)=O)[C@@H](C)O)[C@@H](C)O)[C@@H](C)O)[C@@H](C)O", "note": "[salmon calcitonin, reference compound]", "values": [
      {"measurement": "decrease of serum calcium levels", "setting": "serum calcium in mice", "result": "equally decreased serum calcium levels in a dose-dependent manner"}
    ]},
    {"compound": "ZP-9: DL-pipecolinic acid modified salmon calcitonin", "values": [
      {"measurement": "% SCT EC50, Hamster CT receptor", "setting": "[1]", "result": 147, "unit": "%"},
      {"measurement": "activity / potency compared with human calcitonin", "setting": "[2]", "result": "greater activity than human calcitonin"}
    ]},
    {"compound": "ZP-8: isonipecotic acid modified salmon calcitonin", "values": [
      {"measurement": "% SCT EC50, Hamster CT receptor", "setting": "[1]", "result": 106, "unit": "%"},
      {"measurement": "activity / potency compared with human calcitonin", "setting": "[2]", "result": "greater activity than human calcitonin"}
    ]},
    {"compound": "CC(C)C[C@H](NC(=O)[C@H](CCCCN)NC(=O)CNC(=O)[C@H](CC(C)C)NC(=O)[C@@H](NC(=O)[C@@H]1CSSC[C@H](NC(=O)c2cccnc2)C(=O)N[C@@H](CO)C(=O)N[C@@H](CC(N)=O)C(=O)N[C@@H](CC(C)C)C(=O)N[C@@H](CO)C(=O)N[C@@H]([C@@H](C)O)C(=O)N1)C(C)C)C(=O)N[C@@H](CO)C(=O)N[C@@H](CCC(N)=O)C(=O)N[C@@H](CCC(=O)O)C(=O)N[C@@H](CC(C)C)C(=O)N[C@@H](Cc1c[nH]cn1)C(=O)N[C@@H](CCCCN)C(=O)N[C@@H](CC(C)C)C(=O)N[C@@H](CCC(N)=O)C(=O)N[C@H](C(=O)N[C@@H](Cc1ccc(O)cc1)C(=O)N1CCC[C@H]1C(=O)N[C@@H](CCCNC(=N)N)C(=O)N[C@H](C(=O)N[C@@H](CC(N)=O)C(=O)N[C@H](C(=O)NCC(=O)N[C@@H](CO)C(=O)NCC(=O)N[C@H](C(=O)N1CCC[C@H]1C(N)=O)[C@@H](C)O)[C@@H](C)O)[C@@H](C)O)[C@@H](C)O", "note": "[ZP-5]", "values": [
      {"measurement": "% SCT EC50, Human CT receptor", "setting": "[2]", "result": 112, "unit": "%"}
    ]},
    {"compound": "CC(C)C[C@H](NC(=O)[C@H](CCCCN)NC(=O)CNC(=O)[C@H](CC(C)C)NC(=O)[C@@H](NC(=O)[C@@H]1CSSC[C@H](NC(=O)c2ccccn2)C(=O)N[C@@H](CO)C(=O)N[C@@H](CC(N)=O)C(=O)N[C@@H](CC(C)C)C(=O)N[C@@H](CO)C(=O)N[C@@H]([C@@H](C)O)C(=O)N1)C(C)C)C(=O)N[C@@H](CO)C(=O)N[C@@H](CCC(N)=O)C(=O)N[C@@H](CCC(=O)O)C(=O)N[C@@H](CC(C)C)C(=O)N[C@@H](Cc1c[nH]cn1)C(=O)N[C@@H](CCCCN)C(=O)N[C@@H](CC(C)C)C(=O)N[C@@H](CCC(N)=O)C(=O)N[C@H](C(=O)N[C@@H](Cc1ccc(O)cc1)C(=O)N1CCC[C@H]1C(=O)N[C@@H](CCCNC(=N)N)C(=O)N[C@H](C(=O)N[C@@H](CC(N)=O)C(=O)N[C@H](C(=O)NCC(=O)N[C@@H](CO)C(=O)NCC(=O)N[C@H](C(=O)N1CCC[C@H]1C(N)=O)[C@@H](C)O)[C@@H](C)O)[C@@H](C)O)[C@@H](C)O", "note": "[ZP-6]", "values": [
      {"measurement": "% SCT EC50, Human CT receptor", "setting": "[2]", "result": 140, "unit": "%"}
    ]},
    {"compound": "ZP-1: salmon calcitonin N-terminally modified with 2,2'-bipyridine-4,4'-dicarboxylic acid", "values": [
      {"measurement": "decrease of serum calcium levels", "setting": "serum calcium in mice", "result": "equally decreased serum calcium levels in a dose-dependent manner"},
      {"measurement": "% SCT EC50, Hamster CT receptor", "setting": "[1]", "result": 73, "unit": "%"}
    ]}
  ]
}
